Reference: patent publication US4401660A, “Ester derivatives of 5-O-mycaminosyl tylonolide and method of using same” (Eli Lilly and Company, priority 1981, dated 1983)
Read-outs that look alike come from different tables or passages of the source.

Assays:
[1] = test system: Haemophilus influenzae R252; assay: MIC, standard agar-dilution assay (Table II); format: cell-based; set-up: unit not given here; conditions: Haemophilus influenzae R252, ampicillin-resistant strain
Description: (§1) The MIC's in Table II were determined by standard agar-dilution assays. The MIC's in Table III were obtained using a conventional broth-dilution microtiter test.

[2] = test system: Streptococcus Group D X66; assay: MIC, standard agar-dilution assay (Table II); format: cell-based; set-up: unit not given here
Description: as §1

[3] = test system: Haemophilus influenzae Holt; assay: MIC, standard agar-dilution assay (Table II); format: cell-based; set-up: unit not given here; conditions: ampicillin-sensitive strain
Description: as §1

[4] = test system: Staphylococcus aureus X1.1; assay: MIC, standard agar-dilution assay (Table II); format: cell-based; set-up: unit not given here
Description: as §1

[5] = test system: Streptococcus Group D 9960; assay: MIC, standard agar-dilution assay (Table II); format: cell-based; set-up: unit not given here
Description: as §1

[6] = test system: Staphylococcus aureus X400; assay: MIC, standard agar-dilution assay (Table II); format: cell-based; set-up: unit not given here; conditions: Staphylococcus aureus X400, methicillin-resistant strain
Description: as §1

[7] = test system: Streptococcus pneumoniae Park I; assay: MIC, standard agar-dilution assay (Table II); format: cell-based; set-up: unit not given here
Description: as §1

[8] = test system: Staphylococcus aureus S13E; assay: MIC, standard agar-dilution assay (Table II); format: cell-based; set-up: unit not given here
Description: as §1

[9] = test system: Streptococcus pyogenes C203; assay: MIC, standard agar-dilution assay (Table II); format: cell-based; set-up: unit not given here
Description: as §1

[10] = test system: Staphylococcus aureus V41; assay: MIC, standard agar-dilution assay (Table II); format: cell-based; set-up: unit not given here; conditions: Staphylococcus aureus V41, penicillin-resistant strain
Description: as §1

[11] = test system: Staphylococcus epidermidis EPI2; assay: MIC, standard agar-dilution assay (Table II); format: cell-based; set-up: unit not given here
Description: as §1

[12] = test system: Staphylococcus epidermidis EPI1; assay: MIC, standard agar-dilution assay (Table II); format: cell-based; set-up: unit not given here
Description: as §1

[13] = test system: Streptococcus pyogenes C203; assay: ED50 in mice with experimental infections (Table IV); format: in vivo; conditions: doses given 1 and 4 hours postinfection; for ED50: Streptococcus pyogenes
Method in brief: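 Mice with experimental infections received test compound twice, at 1 and 4 h postinfection. ED50 is the dose in mg/kg (per administration, ×2) protecting 50% of animals.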

[14] = test system: Pasteurella haemolytica 22C; assay: MIC, broth-dilution microtiter test (Table III); format: cell-based; set-up: unit not given here
Description: as §1

[15] = test system: Pasteurella multocida 17E; assay: MIC, broth-dilution microtiter test (Table III); format: cell-based; set-up: unit not given here; conditions: bovine isolate
Description: as §1

[16] = test system: Pasteurella multocida 68C; assay: MIC, broth-dilution microtiter test (Table III); format: cell-based; set-up: unit not given here
Description: as §1

[17] = test system: Mycoplasma synoviae; assay: MIC, broth-dilution microtiter test (Table III); format: cell-based; set-up: unit not given here
Description: as §1

[18] = test system: Pasteurella multocida 60A; assay: MIC, broth-dilution microtiter test (Table III); format: cell-based; set-up: unit not given here; conditions: avian isolate
Description: as §1

[19] = test system: Mycoplasma gallisepticum; assay: MIC, broth-dilution microtiter test (Table III); format: cell-based; set-up: unit not given here
Description: as §1

[20] = test system: Pasteurella multocida 22A; assay: MIC, broth-dilution microtiter test (Table III); format: cell-based; set-up: unit not given here
Description: as §1

[21] = test system: Pasteurella multocida 40G; assay: MIC, broth-dilution microtiter test (Table III); format: cell-based; set-up: unit not given here
Description: as §1

[22] = test system: Staphylococcus aureus; assay: MIC, broth-dilution microtiter test (Table III); format: cell-based; set-up: unit not given here
Description: as §1

[23] = test system: Mycoplasma hyorhinis; assay: MIC, broth-dilution microtiter test (Table III); format: cell-based; set-up: unit not given here
Description: as §1

[24] = test system: Pasteurella haemolytica 41D; assay: MIC, broth-dilution microtiter test (Table III); format: cell-based; set-up: unit not given here
Description: as §1

[25] = test system: Pasteurella haemolytica 23C; assay: MIC, broth-dilution microtiter test (Table III); format: cell-based; set-up: unit not given here
Description: as §1

[26] = test system: Streptococcus sp. 80; assay: MIC, broth-dilution microtiter test (Table III); format: cell-based; set-up: unit not given here
Description: as §1

[27] = test system: Pasteurella multocida; assay: Treatment of Pasteurella infections in chicks (Table V); format: in vivo, one-day-old chicks; conditions: 30 mg/kg by subcutaneous injection one and four hours post challenge; for mortality at 30 mg/kg: Pasteurella multocida, sc, 4 h, read-out: Deaths in Treated Chicks/Number Treated (converted)
Method in brief: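 One-day-old chicks challenged subcutaneously with avian P. multocida (0.1 ml of 10^-3 dilution of 20-hour tryptose broth culture). Esters given at 30 mg/kg subcutaneously at 1 and 4 hours post challenge. Untreated infected controls, ten per group.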

[28] = C203, oral, read-out: ED50, Oral
[29] = C203, sc, subcutaneous, read-out: ED50, Subcutaneous

Structure (SMILES) | minimal inhibitory concentration (MIC) [2] | minimal inhibitory concentration (MIC) [4] | minimal inhibitory concentration (MIC) [5] | minimal inhibitory concentration (MIC) [6] | minimal inhibitory concentration (MIC) [7] | minimal inhibitory concentration (MIC) [8] | minimal inhibitory concentration (MIC) [9] | minimal inhibitory concentration (MIC) [10] | minimal inhibitory concentration (MIC) [11] | minimal inhibitory concentration (MIC) [12] | minimal inhibitory concentration (MIC) [14] | minimal inhibitory concentration (MIC) [15] | minimal inhibitory concentration (MIC) [16] | minimal inhibitory concentration (MIC) [18] | minimal inhibitory concentration (MIC) [19] | minimal inhibitory concentration (MIC) [20] | minimal inhibitory concentration (MIC) [21] | minimal inhibitory concentration (MIC) [22] | minimal inhibitory concentration (MIC) [23] | minimal inhibitory concentration (MIC) [24] | further results
CCC1OC(=O)CC(O)C(C)C(OC2OC(C)C(O)C(N(C)C)C2O)C(CC=O)CC(C)C(=O)C=CC(C)=CC1COC(=O)C(C)(C)C (centres unmarked) [Compound 68] | 0.25 | 0.25 | 0.25 | 0.25 | 0.06 | 0.25 | 0.125 | 0.25 | 0.25 | 0.25 | 6.25 | 3.12 | 1.56 | 3.12 | 0.097 | 3.12 | 3.12 | 1.56 | 0.097 | 6.25 | minimal inhibitory concentration (MIC) [1]: 2; minimal inhibitory concentration (MIC) [3]: 1; ED50 [13, 28]: > 100 mg/kg; ED50 [13, 29]: 3.8 mg/kg; minimal inhibitory concentration (MIC) [17]: < 0.048; minimal inhibitory concentration (MIC) [25]: 3.12; minimal inhibitory concentration (MIC) [26]: < 0.78; mortality at 30 mg/kg [27]: 0%
CCC1OC(=O)CC(O)C(C)C(OC2OC(C)C(O)C(N(C)C)C2O)C(CC=O)CC(C)C(=O)C=CC(C)=CC1COP(=O)(Oc1ccccc1)Oc1ccccc1 (centres unmarked) [Compound 48, 23-O-(Diphenylphosphoryl)-OMT] | 0.25 | 0.25 | 0.25 | 0.25 | 0.03 | 0.25 | 0.125 | 0.25 | 0.25 | 0.25 | 6.25 | 6.25 | 6.25 | 6.25 | 0.78 | 6.25 | 6.25 | 0.39 | 0.78 | 6.25 | ED50, Oral ([13]; oral): > 150 mg/kg × 2; ED50, Subcutaneous ([13]; subcutaneous): > 30 mg/kg × 2; minimal inhibitory concentration (MIC) [17]: 0.78; minimal inhibitory concentration (MIC) [25]: 12.5; minimal inhibitory concentration (MIC) [26]: 0.195; Deaths in Treated Chicks/Number Treated [27]: 10/10
CCC1OC(=O)CC(O)C(C)C(OC2OC(C)C(O)C(N(C)C)C2O)C(CC=O)CC(C)C(=O)C=CC(C)=CC1COC(=O)COc1ccccc1 (centres unmarked) [Compound 36, 23-O-Phenoxyacetyl-OMT] | 0.125 | 0.125 | 0.125 | 0.25 | 0.03 | 0.125 | 0.06 | 0.25 | 0.25 | 0.125 | 3.12 | 1.56 | 0.78 | 1.56 | < 0.05 | 3.12 | 1.56 | 0.39 | 1.56 | 3.12 | minimal inhibitory concentration (MIC) [1]: 0.5; minimal inhibitory concentration (MIC) [3]: 0.5; ED50 [13, 28]: > 150 mg/kg; ED50 [13, 29]: 6 mg/kg; minimal inhibitory concentration (MIC) [25]: 3.12; minimal inhibitory concentration (MIC) [26]: < 0.05; mortality at 30 mg/kg [27]: 10%
CCC1OC(=O)CC(O)C(C)C(OC2OC(C)C(O)C(N(C)C)C2O)C(CC=O)CC(C)C(=O)C=CC(C)=CC1COC(=O)[C@H](NC(=O)OC(C)(C)C)c1ccccc1 (stereo partly drawn) [Compound 40, 23-O-(D-t-BOC-Phenylglycyl)-OMT] | 0.5 | 0.5 | 0.5 | 1 | 0.06 | 0.5 | 0.125 | 1 | 0.5 | 0.5 | 12.5 | 6.25 | 6.25 | 6.25 | < 0.05 | 12.5 | 6.25 | 0.78 | 0.39 | 12.5 | minimal inhibitory concentration (MIC) [1]: 2; minimal inhibitory concentration (MIC) [3]: 2; ED50 [13, 28]: 116 mg/kg; ED50 [13, 29]: 5 mg/kg; minimal inhibitory concentration (MIC) [25]: 12.5; minimal inhibitory concentration (MIC) [26]: 0.195; mortality at 30 mg/kg [27]: 100%
CCC1OC(=O)CC(O)C(C)C(OC2OC(C)C(O)C(N(C)C)C2O)C(CC=O)CC(C)C(=O)C=CC(C)=CC1COC(=O)[C@H](O)c1ccccc1 (some centres unmarked) [Compound 42, 23-O-Mandeloyl-OMT] | 0.25 | 0.25 | 0.25 | 0.5 | 0.06 | 0.25 | 0.125 | 0.5 | 0.5 | 0.25 | 6.25 | 6.25 | 3.12 | 3.12 | 0.39 | 6.25 | 1.56 | 0.78 | 12.5 | 3.12 | ED50 [13, 28]: > 150 mg/kg; ED50 [13, 29]: 11 mg/kg; minimal inhibitory concentration (MIC) [17]: 0.195; minimal inhibitory concentration (MIC) [25]: 6.25; minimal inhibitory concentration (MIC) [26]: 0.39; mortality at 30 mg/kg [27]: 0%
